How the values were obtained:
[1] = system: co-culture of rat dorsal root ganglion neurons and Schwann cells; test: Myelination in co-culture, MBP immunostaining, number of myelin sheath segments; assay type: cell-based; conditions: 30 μM with ascorbic acid treatment, vs vehicle treatment group
Experimental: The dorsal root ganglion was excised from a fetus of a female SD rat at 15 days of pregnancy, and then neurons and Schwann precursor cells thereof were separately cultured (the initial day of cell culture was designated as Day 1). On day 19 from the initial day of cell culture (Day19), Schwann precursor cells were added to the culture of neurons to initiate co-culture. Myelination was induced by treatment with ascorbic acid (a total of 4 to 5 times in accordance with 2 to 3 times of medium exchange) on the 26th to 40th days (Days 26 to 40) from the initial day of cell culture.
In combination with ascorbic acid treatment, treatment with compound 1 dissolved in sterile distilled water (final concentration of 30 μM) was performed 4 to 5 times in total. As a control, treatment with sterile distilled water instead of the compound 1 solution was performed. Groups were composed of 2 groups: a sterile distilled water treatment group (Vehicle treatment group); and a 30 μM compound 1 treatment group (compound 1 treatment group). […]
Fluorescent images of MBP were taken with a fluorescence microscope (DMI4000B, Leica), and then the number of myelin sheath segments (≥25 μm) was analyzed based on the images. […]

[2] = system: rat oxaliplatin-induced peripheral neuropathy model; test: Mechanical allodynia (von Frey test) in rat oxaliplatin-induced peripheral neuropathy model; assay type: in vivo; conditions: day 18 after induction, vs vehicle group
Experimental: Oxaliplatin (4 mg/kg, Elplat I.V. infusion solution […]; Yakult) was administered to SD rats (7 weeks old, male; CHARLES RIVER LABORATORIES JAPAN, INC.) in a cycle of 1 week (intraperitoneally administered twice, two consecutive days per week) for 2 or 3 weeks, thereby preparing an oxaliplatin-induced peripheral neuropathy model. As a control (pseudo-induction), a 5% glucose solution (Otsuka Pharmaceutical Factory, Inc.) was administered. The initial day of administration was designated as day 0 after induction of pathological conditions. […]
Beneficial effects on mechanical allodynia were evaluated before induction of pathological conditions and on day 18 after induction of pathological conditions (before the 1st administration of compound 1). Beneficial effects on mechanical allodynia were evaluated by von Frey test. The test method was performed according to the method described in the known literature (Chaplan et al. Journal of Neuroscience Methods, 1994, Vol. 53, p. 55-63) using von Frey filaments (North Coast Medical) so that 50% response threshold was calculated.

[3] = system: rat bortezomib-induced peripheral neuropathy model; test: Mechanical allodynia (von Frey test) in rat bortezomib-induced peripheral neuropathy model; assay type: in vivo; conditions: 20 mg/kg oral single dose, day 15, 3 hours after administration, vs vehicle group
Experimental: Bortezomib (0.2 mg/kg, AdooQ BioScience) was intraperitoneally administered 4 times in total to SD rats (6 weeks old, male; CHARLES RIVER LABORATORIES JAPAN, INC.) on days 1, 4, 8 and 11 after induction of pathological conditions, thereby preparing a bortezomib-induced peripheral neuropathy model. Here, the initial day of administration was designated as the 1st day (Day1) after induction of pathological conditions. Bortezomib was dissolved in dimethyl sulfoxide, and then Tween80 was added. Subsequently, water for injection was added to prepare a 0.2 mg/mL solution. The final concentration of dimethyl sulfoxide and that of Tween80 were each 5%.
On day 15 after induction of pathological conditions, a solution containing compound 1 (20 mg/kg) or a solvent thereof (water for injection) was orally administered to rats. Groups were composed of 2 groups: a solvent administration group (vehicle group) and a compound 1 (20 mg/kg) administration group.
Beneficial effects on mechanical allodynia were evaluated in a manner similar to Example 5, and this evaluation was performed before and on day 15 after induction of pathological conditions (3 hours after administration of compound 1).

[4] = system: fetal rat dorsal root ganglion-derived established neuronal cell line ND15; test: Repair effect on cisplatin-induced cell damage (cell viability), post-treatment; assay type: cell-based; conditions: ND15 cells, 24 hours cisplatin, then 2 hours post-treatment with compound 1 at 0.5, 5 or 50 μM
Experimental: A fetal rat dorsal root ganglion-derived established neuronal cell line ND15 was cultured in 10% FBS-containing DMEM. On the next day, the cells were cultured in 10% FBS-containing DMEM containing EC23 (10 μM, Reinner) for 8 days, for differentiation into neurons.
For measurement of cell viability, the medium was exchanged with DMEM/F12 medium containing alamarBlue (Invitrogen), followed by 2 hours of culture, and then the absorbance at wavelength of 570 nm and the absorbance at wavelength of 595 nm were measured. Cell viability was calculated using the ratio of the absorbance at wavelength of 570 nm to the absorbance at wavelength of 595 nm and the untreated group designated as 100%.
In a manner similar to Example 1, cell damage was induced to a fetal rat dorsal root ganglion-derived established neuronal cell line ND15 by the use of cisplatin, and then the cell viability was measured. After 24 hours of treatment with cisplatin, compound 1 was contained in a medium for 2 hours of treatment (final concentration of 0.5, 5 or 50 μM). Groups were composed of 6 groups: an untreated group; a 50 μM compound 1 treatment group; a cisplatin treatment group; a cisplatin and 0.5 μM compound 1 treatment group; a cisplatin and 5 μM compound 1 treatment group; and a cisplatin and 50 μM compound 1 treatment group.

CN(C)C1CCN(C(=O)C[C@H](O)c2nccn2C)CC1 [Compound 1, (S)-1-(4-(dimethylamino)piperidin-1-yl)-3-hydroxy-3-(1-methyl-1H-imidazol-2-yl)propan-1-one]
number of myelin sheath segments [1]: Increased number of myelin sheath segments
50% response threshold in von Frey test (mechanical allodynia) ([2]; 3 mg/kg oral twice a day): significant increase in 50% response threshold
50% response threshold in von Frey test (mechanical allodynia) ([2]; 10 mg/kg oral twice a day): significant increase in 50% response threshold
50% response threshold in von Frey test (mechanical allodynia) [3]: significant increase in 50% response threshold
cell viability (decrease caused by cisplatin) [4]: suppressed decrease
